In the NIST ThermoML archive (doi:10.1016/j.fluid.2016.07.018):
Numbers after ± are expanded uncertainties.

Conditions: Liquid
[1] = 313.15 K, gas saturation method
[2] = 333.15 K, gas saturation method
[3] = 353.15 K, gas saturation method
[4] = 373.15 K, gas saturation method
[5] = 393.15 K, gas saturation method
[6] = 423.15 K, gas saturation method

Row | SMILES | vapor or sublimation pressure [1] | vapor or sublimation pressure [2] | vapor or sublimation pressure [3] | vapor or sublimation pressure [4] | vapor or sublimation pressure (381.51 K, Closed cell (Static) method) | vapor or sublimation pressure (391.7 K, Closed cell (Static) method) | vapor or sublimation pressure [5] | vapor or sublimation pressure (401.69 K, Closed cell (Static) method) | vapor or sublimation pressure (411.58 K, Closed cell (Static) method) | vapor or sublimation pressure (421.43 K, Closed cell (Static) method) | vapor or sublimation pressure [6]
1 | CCCCOC(=O)c1ccccc1C(=O)OCCCC [dibutyl phthalate] | 2.4e-05 ± 2e-06 kPa | 0.000195 ± 1.5e-05 kPa | 0.001289 ± 0.0001 kPa | 0.006211 ± 0.00057 kPa | 0.0127 ± 0.0007 kPa | 0.0248 ± 0.0009 kPa | 0.02452 ± 0.0019 kPa | 0.0461 ± 0.0013 kPa | 0.0824 ± 0.0021 kPa | 0.1441 ± 0.0028 kPa | 0.151 ± 0.012 kPa
2 | CC(C)COC(=O)c1ccccc1C(=O)OCC(C)C [diisobutyl 1,2-benzenedioate] | 4.1e-05 ± 3e-06 kPa | 0.000436 ± 4.3e-05 kPa | 0.002796 ± 0.00025 kPa | 0.01285 ± 0.001 kPa |  |  | 0.0445 ± 0.0035 kPa |  |  |  | 0.2156 ± 0.017 kPa
